Assay results published in US5686424A, “2-oxoethyl derivatives as immunosuppressants” (Miles Inc., priority 1995, dated 1997).
Where a name gives a salt, the structure may show the parent alone.

Assays:
[1] = target: FKBP (Homo sapiens, UniProt P62942); experiment: PPIase Inhibition Assay; type: biochemical; details: concentration of inhibitor required for 50% inhibition of enzyme activity; FKBP, substrate Succinyl-Ala-Phe-Pro-Phe-para-nitroanilide; TABLE I
Procedure, shortened: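 Chymotrypsin-coupled isomerization of Succinyl-Ala-Phe-Pro-Phe-para-nitroanilide by FKBP in ice-cold 25 mM HEPES pH 7.8, 100 mM NaCl, compound in DMSO. A390 followed 90 sec; first-order rate constants give % activity remaining after subtracting uncatalyzed rate; IC50 by linear regression of V-/V+ versus concentration.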

[2] = system: NF-AT; experiment: NF-AT Inhibition Assay Directed β-Galactosidase Expression in FGL-5 cells; type: cell-based; details: 50% inhibition of NF-AT directed β-galactosidase activity in FGL-5 cells stimulated with phorbol dibutyrate and ionomycin; TABLE 3
Description: 3) NF-AT Assay Stimulation of T-cells leads to the appearance of several transcription factors, including one designated "NF-AT". These factors are involved in regulation of gene expression required for immunologic activation. Some of these transcription factors appear to have functions in a wide variety of cell types. By contrast, NF-AT is found primarily in T-cells and its role is restricted to early gene activation. […] Inhibition of NF-AT activity is measured using FGL-5 cells. FGL-5 is a cloned line of stably transfected Jurkat T-cells that contain two construct in which three tandem copies of the NF-AT DNA binding site direct transcription of both murine CD8 and the lacZ gene, encoding β-galactosidase ([…] et al., 1990, Genes & Development 4:1823). When these cells are stimulated with phorbol esters which activate protein kinase C and calcium ionophore to raise the intracellular calcium concentration, transcriptionally active NF-AT is produced. In T-cells, this normally leads to the expression of IL-2, T-cell growth factor. However, in FGL-5 cells NF-AT activation leads to the production of β-galactosidase which can be detected using an appropriate substrate. […] NF-AT Inhibition Assay Directed β-Galactosidase Expression This assay was performed essentially as described (Bierer et al., 1990, Proc. Natl. Acad. Sci. 87:9231). […] The assays were done with exponentially growing cells whose density was not greater than 0.5 million cells/ml. The cells were resuspended to 3 million cells/ml in medium and 0.1 ml was added to wells of a 96-well plate. The compounds of the present invention were dissolved in either ethanol or dimethylsulfoxide at 10 mM and […] of various dilutions in medium were added to cells in duplicate wells. Treatment controls consisted of duplicate wells containing 0.5 ml/well of either medium, ethanol or dimethylsulfoxide. The ethanol and dimethyl sulfoxide were at the same concentration as was used for the compounds. […] Phorbol dibutyrate (Sigma) and Ionomycin (Calbiochem) were dissolved at 50 μg/ml and 2 mM, respectively and stored at -70° C. […] For unstimulated cell controls, 0.5 ml/well of medium was added to duplicate wells. The plates were incubated overnight (16-18 hours) at 37° C. in a humidified atmosphere of 5% CO2 and air. β-galactosidase activity was measured as the fluorescence generated by the cleavage of 4-methyl umbelliferyl-β-D-galactoside (Sigma) at the β-galactoside bond. After overnight incubation, the cells were centrifuged at 500×g for 3 minutes in the 96-well plates and washed 3 times with PBS. […] The percent inhibition by each concentration of the compounds was calculated as: […]

[3] = system: human T-cells; experiment: Suppression of Human T-Cell Proliferation Assay (PHA-stimulated, [3H]-thymidine incorporation); type: cell-based; details: concentration inhibiting [3H]-thymidine incorporation of PHA-stimulated T-cells by 50%, 72 hours; TABLE 2; read-out: IC50
Procedure, shortened: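 SRBC-rosette-purified human peripheral T-cells stimulated with PHA-M (40 μg/ml stock) and compound dilutions, in duplicate, for 72 h at 37° C. Proliferation measured by [3H]-thymidine incorporation during the final 6 h, read by liquid scintillation counting.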

Sequence of FKBP (P62942 whole entry): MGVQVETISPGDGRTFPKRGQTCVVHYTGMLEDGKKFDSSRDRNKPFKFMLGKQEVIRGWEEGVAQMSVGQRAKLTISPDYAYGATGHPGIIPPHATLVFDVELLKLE

| IC50 [1] [µM] | IC50 [2] [µM] | SMILES | IC50 [3] [µM] |
| --- | --- | --- | --- |
| > 5 | > 33 | COc1cc(C(=O)CN2CCC[C@H]2C(=O)NC(C)CCc2ccccc2)cc(OC)c1OC (stereo partly drawn) [Example 138, L-Proline, 1-[2-(3,4,5-Trimethoxyphenyl)-2-Oxoethyl] 1-methyl-3-phenylpropylamide Hydrochloride] | 18 |
| > 5 | > 33 | COc1cc(C(=O)CN2CCC[C@H]2C(=O)NC2CCCCC2)cc(OC)c1OC [Example 145, L-Proline, 1-[2-(3,4,5-Trimethoxyphenyl)-2-Oxoethyl] Cyclohexyl amide Hydrochloride] | 4 |
| < 5 | 24 | CC[C@H](C)[C@H](NC(=O)[C@@H]1CCCN1CC(=O)C1CCC(C(C)(C)C)CC1)C(=O)NCc1ccccc1 (stereo partly drawn) [Example 96, L-Isoleucine, N-[1-(2-(4-tert-Butylcyclohexyl)-2-Oxoethyl)-L-Prolyl] Benzylamide] | 8 |
| 2.2 | 13 | CC[C@H](C)[C@H](NC(=O)[C@@H]1CCCCN1CC(=O)C12CC3CC(CC(C3)C1)C2)C(=O)NCc1ccccc1 [Example 36, L-Isoleucine, N-[1-(2-Adamantan-1-yl-2-Oxoethyl)-L-Homoproline] Benzylamide] | 20 |
| > 5 | > 15 | COc1cc(C(=O)CN2CCCC[C@H]2C(=O)NCC23CC4CC(CC(C4)C2)C3)cc(OC)c1OC [Example 147, L-Homoproline, 1-[2-(3,4,5-Trimethoxyphenyl)-2-Oxoethyl] Adamant-1-ylmethylamide Hydrochloride] | 8 |
| > 5 | > 33 | COc1ccccc1CNC(=O)[C@@H]1CCCN1CC(=O)c1cc(OC)c(OC)c(OC)c1 [Example 134, L-Proline, 1-[2-(3,4,5-Trimethoxyphenyl)-2-Oxoethyl] 2-Methoxybenzamide Hydrochloride] | 19 |
| < 5 | 32 | CC[C@H](C)[C@H](NC(=O)[C@@H]1CCCN1CC(=O)C1CC2CCC1C2)C(=O)NCc1ccccc1 (stereo partly drawn) [Example 97] | 12 |
| < 5 | 0.6 | CC[C@H](C)[C@H](NC(=O)[C@@H]1CCCN1CC(=O)c1ccc2c(c1)OCO2)C(=O)NCc1ccccc1 [Example 107, L-Isoleucine, N-[1-(2-(Benzo[1,3]dioxol-5-yl)-2-Oxoethyl)-L-Prolyl] Benzylamide] | 1 |
| > 5 | > 33 | COc1cc(C(=O)CN2CCC[C@H]2C(=O)N[C@H](C)c2cccc3ccccc23)cc(OC)c1OC [Example 140, L-Proline, 1-[2-(3,4,5-Trimethoxyphenyl)-2-Oxoethyl] 1-(R)-(1-naphthyl)ethylamide Hydrochloride] | 10 |
| 0.71 | > 100 | CC[C@H](C)[C@H](NC(=O)[C@@H]1CCCN1CC(=O)C12CC3CC(CC(C3)C1)C2)C(=O)NCc1ccncc1 [Example 67, L-Isoleucine, N-[1-(2-Adamantan-1-yl-2-Oxoethyl)-L-Prolyl] Pyridin-4-ylmethylamide] | 19 |
| < 5 | > 15 | CC[C@H](C)[C@H](NC(=O)[C@@H]1CCCN1CC(=O)c1ccc(Oc2ccccc2)cc1)C(=O)NCc1ccccc1 [Example 109, L-Isoleucine, N-[1-(2-(4-Phenoxyphenyl)-2-Oxoethyl)-L-Prolyl] Benzylamide] | 5 |
| < 5 | > 15 | CC[C@H](C)[C@H](NC(=O)[C@@H]1CCCN1CC(=O)c1cccc(OC(=O)c2ccccc2)c1)C(=O)NCc1ccccc1 [Example 101, L-Isoleucine, N-[1-(2-(3-Benzoyloxyphenyl)-2-Oxoethyl)-L-Prolyl] Benzylamide] | > 15 |
| < 5 | > 15 | CC[C@H](C)[C@H](NC(=O)[C@@H]1CCCN1CC(=O)c1ccc(OCCOc2ccccc2)cc1)C(=O)NCc1ccccc1 [Example 108, L-Isoleucine, N-[1-{2-Oxo-2-[4-(2-Phenoxyethoxy)-Phenyl]-Ethyl}-L-Prolyl] Benzylamide] | > 15 |
| > 5 | > 33 | COc1cccc(CNC(=O)[C@@H]2CCCN2CC(=O)c2cc(OC)c(OC)c(OC)c2)c1 [Example 133, L-Proline, 1-[2-(3,4,5-Trimethoxyphenyl)-2-Oxoethyl] 3-Methoxybenzamide Hydrochloride] | 22 |
| > 5 | > 15 | COc1cc(C(=O)CN2CCCC[C@H]2C(=O)NCCc2ccc(S(N)(=O)=O)cc2)cc(OC)c1OC [Example 149, L-Homoproline, 1-[2-(3,4,5-Trimethoxyphenyl)-2-Oxoethyl] 2-(4-Sulfamoylphenyl)ethylamide] | > 15 |
| > 5 | > 33 | COc1cc(C(=O)CN2CCC[C@H]2C(=O)NCC23CC4CC(CC(C4)C2)C3)cc(OC)c1OC [Example 139, L-Proline, 1-[2-(3,4,5-Trimethoxyphenyl)-2-Oxoethyl] Adamant-1-ylmethylamide Hydrochloride] | 4 |
| > 5 | > 33 | COc1cc(C(=O)CN2CCC[C@H]2C(=O)N(C)CCc2ccccc2)cc(OC)c1OC [Example 135, L-Proline, 1-[2-(3,4,5-Trimethoxyphenyl)-2-Oxoethyl] N-MethylphenethylamideHydrochloride] | 14 |
| > 5 | > 15 | CC[C@H](C)[C@H](NC(=O)[C@@H]1CCCN1CC(=O)c1cc2ccccc2o1)C(=O)NCc1ccccc1 [Example 100, L-Isoleucine, N-[1-(2-(Benzofuran-2-yl)-2-Oxoethyl)-L-Prolyl] Benzylamide Hydrochloride Salt] | > 15 |
| > 5 | 22 | CCCCCC1CCC(C(=O)CN2CCC[C@H]2C(=O)N[C@H](C(=O)NCc2ccccc2)[C@@H](C)CC)CC1 (stereo partly drawn) [Example 42, L-Isoleuclne, N-[1-(2-(4-Pentylcyclohexyl)-2-Oxoethyl)-L-Prolyl] Benzylamide] | 7 |
| 5.1 | 44 | O=C(CNC(=O)[C@@H]1CCCN1CC(=O)C12CC3CC(CC(C3)C1)C2)NCc1ccccc1 [Example 55, Glycine, N-[1-(2-Adamantan-1-yl-2-Oxoethyl)-L-Prolyl] Benzylamide] | 13 |
| > 5 | > 15 | C=CCOC(=O)Nc1ccc(CCCOC(=O)[C@@H]2CCCN2CC(=O)c2cc(OC)c(OC)c(OC)c2)cc1 [Example 126, L-Proline, 1-[2-(3,4,5-Trimethoxyphenyl)-2-Oxoethyl] 3-(4-[N-Carboallyloxy]aminophenyl)propyl Ester Hydrochloride] | 10 |
| 0.4 | 60 | CC[C@H](C)[C@H](NC(=O)[C@@H]1CCCN1CC(=O)C12CC3CC(CC(C3)C1)C2)C(=O)NCc1ccccn1 [Example 68, L-Isoleucine, N-[1-(2-Adamantan-1-yl-2-Oxoethyl)-L-Prolyl] Pyridin-2-ylmethylamide] | 16 |
| 3.2 | > 100 | CC[C@H](C)[C@H](NC(=O)[C@@H]1CCCN1CC(=O)OCC=Cc1ccccc1)C(=O)NCc1ccccc1 [Example 84, L-Isoleucine, N-[1-(2-(3-Phenyl-2-Propen-1-Oxy)-2-Oxoethyl)-L-Prolyl] Benzylamide] | > 100 |
